In patent publication US6534516B1, “Androgen receptor modulator compounds and methods” (Ligand Pharmaceuticals Incorporated, priority 1996, dated 2003):

Legend:
human AR [1] = target: T1, human AR (Homo sapiens, UniProt P10275); experiment: cell-based; type: cell-based
T1 construct: expressed in transfected cells; host or cells: CV-1 cells (African green monkey kidney fibroblasts)
T1 sequence (P10275 1-920): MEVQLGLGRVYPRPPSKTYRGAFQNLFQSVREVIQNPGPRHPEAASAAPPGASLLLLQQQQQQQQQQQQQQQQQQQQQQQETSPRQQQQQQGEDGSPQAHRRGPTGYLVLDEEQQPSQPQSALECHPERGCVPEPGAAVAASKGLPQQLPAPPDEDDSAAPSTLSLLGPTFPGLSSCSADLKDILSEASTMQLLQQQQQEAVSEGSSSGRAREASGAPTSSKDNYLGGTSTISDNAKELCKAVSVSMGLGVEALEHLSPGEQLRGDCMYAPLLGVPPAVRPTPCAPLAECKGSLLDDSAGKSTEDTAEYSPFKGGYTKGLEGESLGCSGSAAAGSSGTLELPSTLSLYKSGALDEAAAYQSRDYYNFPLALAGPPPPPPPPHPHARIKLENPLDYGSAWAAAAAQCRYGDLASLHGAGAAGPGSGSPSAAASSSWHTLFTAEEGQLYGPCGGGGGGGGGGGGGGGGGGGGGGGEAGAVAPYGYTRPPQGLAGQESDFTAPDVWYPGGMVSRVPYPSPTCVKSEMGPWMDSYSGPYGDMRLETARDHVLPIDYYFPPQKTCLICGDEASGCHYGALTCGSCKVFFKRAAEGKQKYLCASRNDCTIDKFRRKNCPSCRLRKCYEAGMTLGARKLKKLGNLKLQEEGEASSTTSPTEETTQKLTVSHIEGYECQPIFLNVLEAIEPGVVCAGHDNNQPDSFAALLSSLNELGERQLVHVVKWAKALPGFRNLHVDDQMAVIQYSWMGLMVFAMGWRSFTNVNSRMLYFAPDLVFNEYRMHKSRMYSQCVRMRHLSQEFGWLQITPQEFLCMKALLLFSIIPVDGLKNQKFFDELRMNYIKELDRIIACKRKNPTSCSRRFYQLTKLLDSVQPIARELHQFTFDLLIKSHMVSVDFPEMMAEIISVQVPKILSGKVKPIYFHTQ
Source text: The co-transfection assay provides a method for identifying functional agonists and partial agonists which mimic, or antagonists which inhibit, the effect of native hormones, and quantifying their activity for responsive IR proteins. In this regard, the co-transfection assay mimics an in vivo system in the laboratory. Importantly, activity in the co-transfection assay correlates very well with known in vivo activity, such that the co-transfection assay functions as a qualitative and quantitative predictor of a tested compounds in vivo pharmacology. See, e.g., T. Berger et al. 41 J. Steroid Biochem. Molec.
CV-1 cells (African green monkey kidney fibroblasts) were cultured in the presence of Dulbecco's Modified Eagle Medium (DMEM) supplemented with 10% charcoal resin-stripped fetal bovine serum then transferred to 96-well microtiter plates one day prior to transfection.
The reporter plasmid, MTV-LUC, contains the cDNA for firefly luciferase (LUC) under control of the mouse mammary tumor virus (MTV) long terminal repeat, a conditional promoter containing an androgen response element. See e.g., Berger et al. supra. In addition, pRS-β-Gal, coding for constitutive expression of E. coli β-galactosidase (β-Gal), was included as an internal control for evaluation of transfection efficiency and compound toxicity.
Three to four replicates were used for each sample.
After 40 hours, the cells were washed with PBS, lysed with a Triton X-100-based buffer and assayed for LUC and β-Gal activities using a luminometer or spectrophotometer, respectively. For each replicate, the normalized response (NR) was calculated as:
where β-Gal rate=β-Gal•1×10^−5/β-Gal incubation time.

human AR [2] = target: T1, human AR; experiment: cell-based; conditions: read-out: AR Binding Ki
MR = target: T2, MR (Homo sapiens, UniProt P08235); experiment: Co-transfection assay, cross-reactivity on MR; type: cell-based
T2 construct: expressed in transfected cells
T2 sequence (P08235 1-984): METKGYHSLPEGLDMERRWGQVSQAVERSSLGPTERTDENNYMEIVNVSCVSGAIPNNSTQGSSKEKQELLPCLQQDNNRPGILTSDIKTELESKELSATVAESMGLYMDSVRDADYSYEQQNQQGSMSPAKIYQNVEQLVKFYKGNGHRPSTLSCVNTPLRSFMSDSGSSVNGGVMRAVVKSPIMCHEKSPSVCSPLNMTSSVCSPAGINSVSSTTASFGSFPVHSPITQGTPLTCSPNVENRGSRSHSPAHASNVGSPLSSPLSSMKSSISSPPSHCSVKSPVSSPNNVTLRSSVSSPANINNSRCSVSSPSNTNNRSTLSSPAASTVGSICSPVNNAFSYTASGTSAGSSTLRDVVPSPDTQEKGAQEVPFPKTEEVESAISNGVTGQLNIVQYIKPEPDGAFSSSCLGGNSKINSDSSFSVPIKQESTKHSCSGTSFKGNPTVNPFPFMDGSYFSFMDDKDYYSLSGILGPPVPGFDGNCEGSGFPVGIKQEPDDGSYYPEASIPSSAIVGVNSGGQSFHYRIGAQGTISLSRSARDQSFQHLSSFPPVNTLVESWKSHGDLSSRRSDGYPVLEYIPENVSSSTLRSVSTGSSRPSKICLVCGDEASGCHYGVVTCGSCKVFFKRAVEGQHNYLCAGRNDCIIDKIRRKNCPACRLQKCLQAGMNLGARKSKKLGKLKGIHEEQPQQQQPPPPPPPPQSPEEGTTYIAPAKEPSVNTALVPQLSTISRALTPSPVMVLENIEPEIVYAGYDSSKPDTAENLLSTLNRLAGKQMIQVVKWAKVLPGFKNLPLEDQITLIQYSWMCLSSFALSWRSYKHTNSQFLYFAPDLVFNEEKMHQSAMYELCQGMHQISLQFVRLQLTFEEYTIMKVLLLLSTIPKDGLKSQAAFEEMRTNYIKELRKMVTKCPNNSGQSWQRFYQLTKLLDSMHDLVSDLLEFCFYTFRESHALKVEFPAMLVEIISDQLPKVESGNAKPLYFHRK

SMILES: CC1(C)CCc2cc3c(C(F)(F)F)c(F)c(=O)[nH]c3cc2N1 [Compound 105, 7-Fluoro-1,2,3,4-tetrahydro-2,2-dimethyl-6-trifluoromethyl-8-pyridono[5,6-g]quinoline]
- AR Agonist CV-1 Cells Efficacy (human AR [1]): 39 ± 6%
- EC50 (human AR [1]): 125 ± 28 nM
- AR Antagonist CV-1 Cells Efficacy (human AR [1]; antagonist mode, DHT at its EC50, % of maximal inhibition, na = not active): 39 ± 6%
- IC50 (human AR [1]; read-out: AR Antagonist CV-1 Cells Potency): 34 ± 14 nM
- AR activity profile (in words) (human AR [1]; summary of Tables 1 and 2): mixed AR agonists/antagonists
- Ki (human AR [2]): 21 ± 11 nM
- IC50 (MR): 2260 nM
